# Measurements from article PMC8643619 (Plant and Cell Physiology, 2021).
# Columns and labels:
# PcAAE2 = test: coupled NADH oxidation assay; format: biochemical, Pogostemon cablin; details: 10 mM MgCl2, pH 7.5, 30°C
# PcAAE1 = test: coupled NADH oxidation assay; format: biochemical, Pogostemon cablin; details: 10 mM MgCl2, pH 7.5, 30°C
Structure (SMILES),"Km (PcAAE2; 1 mM CoA, 5 mM ATP)",also measured
CCCC(=O)O [Butyric acid],570 ± 86.5 µM,"Km (PcAAE1; 1 mM CoA, 5 mM ATP): 161 ± 5 µM"
Nc1ncnc2c1ncn2[C@@H]1O[C@H](COP(=O)(O)OP(=O)(O)OP(=O)(O)O)[C@@H](O)[C@H]1O [ATP],–,"Km (PcAAE2; co-substrate 4-methylvaleric acid 1 mM, CoA 1 mM): 160 µM; Km (PcAAE1; co-substrate isovaleric acid 1 mM, CoA 1 mM): 89 µM"
CCCCCCC(=O)O [Heptanoic acid],84.5 ± 7.1 µM,–
CC(C)CCC(=O)O [4-Methylvaleric acid],43.4 ± 5.1 µM,–
CC(C)CCCC(=O)O [5-Methylhexanoic acid],176 ± 20 µM,–
CC(C)(COP(=O)(O)OP(=O)(O)OC[C@H]1O[C@@H](n2cnc3c(N)ncnc32)[C@H](O)[C@@H]1OP(=O)(O)O)[C@@H](O)C(=O)NCCC(=O)NCCS [CoA],–,"Km (PcAAE2; co-substrate 4-methylvaleric acid 1 mM, 5 mM ATP): 40.2 µM; Km (PcAAE1; co-substrate isovaleric acid 1 mM, 5 mM ATP): 28.2 µM"

# Second part, led by results:
"Km (PcAAE2; 1 mM CoA, 5 mM ATP)",Structure (SMILES),also measured
217 ± 13.1 µM,CC(C)CC(=O)O [Isovaleric acid],"Km (PcAAE1; 1 mM CoA, 5 mM ATP): 12.9 ± 0.8 µM"
41.5 ± 2.4 µM,CCCCCC(=O)O [Hexanoic acid],–
53.9 ± 2.7 µM,CCCCC(=O)O [Valeric acid],–
